ChEMBL document CHEMBL5113380, “Functionalized quinoxalinones as privileged structures with broad-ranging pharmacological activities” (Eur J Med Chem, 2022)
In brackets after ≈: the same amount, converted by molar mass. One block for each compound: values may come before it.

Experiments:
[1] = target: T1, Glutamate receptor ionotropic AMPA (Homo sapiens, UniProt P42261+P42262+P42263+P48058); experiment: Displacement of [3H]AMPA from AMPA receptor (unknown origin); format: protein-complex assay
[2] = target: Glutamate [NMDA] receptor; experiment: Displacement of [3H]glycine from NMDA receptor (unknown origin); format: protein-complex assay, Homo sapiens
[3] = target: T1, Glutamate receptor ionotropic AMPA; experiment: Displacement of [3H]kainate from AMPA receptor (unknown origin); format: protein-complex assay
[4] = Displacement of [3H]glycine from AMPA receptor (unknown origin); format: protein-complex assay, Homo sapiens
Homo sapiens = species: Homo sapiens; experiment: Inhibition of human TRK relative to control; set-up: concentration or dose not given beside the values; conditions: concentration not given here
[5] = target: Prostaglandin G/H synthase 1 (Homo sapiens, UniProt P23219)
Prostaglandin G/H synthase 1, sequence (P23219 whole entry): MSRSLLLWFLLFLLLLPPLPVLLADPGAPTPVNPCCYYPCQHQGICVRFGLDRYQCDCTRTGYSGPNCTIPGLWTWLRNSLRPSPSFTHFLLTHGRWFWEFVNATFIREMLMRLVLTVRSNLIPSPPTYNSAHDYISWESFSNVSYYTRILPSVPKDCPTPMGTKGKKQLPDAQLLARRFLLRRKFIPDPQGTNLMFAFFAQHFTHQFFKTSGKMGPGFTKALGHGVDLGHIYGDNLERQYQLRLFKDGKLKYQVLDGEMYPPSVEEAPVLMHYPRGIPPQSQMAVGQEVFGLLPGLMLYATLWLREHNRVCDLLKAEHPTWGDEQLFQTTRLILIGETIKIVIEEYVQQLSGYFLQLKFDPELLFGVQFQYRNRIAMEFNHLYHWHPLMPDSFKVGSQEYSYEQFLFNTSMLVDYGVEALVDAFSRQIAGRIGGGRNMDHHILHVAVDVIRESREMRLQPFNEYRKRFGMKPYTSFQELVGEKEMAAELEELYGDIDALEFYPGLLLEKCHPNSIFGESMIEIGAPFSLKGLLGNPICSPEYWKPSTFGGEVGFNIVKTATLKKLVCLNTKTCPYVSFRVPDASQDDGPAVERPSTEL

[6] = Antioxidant activity assessed as DPPH radical scavenging activity; format: functional; conditions: read-out: IC50
[7] = Inhibition of ALR2 (unknown origin); set-up: species or system Homo sapiens
[8] = Inhibition of ALR1 (unknown origin) relative to control; set-up: concentration or dose not given beside the values; conditions: Homo sapiens; concentration not given here
[9] = Antioxidant activity assessed as DPPH radical scavenging activity at 100 uM; format: functional
[10] = Antioxidant activity assessed as DPPH radical scavenging activity at 50 uM; format: functional
[11] = Antioxidant activity assessed as DPPH radical scavenging activity at 10 uM; format: functional
[12] = target: Human immunodeficiency virus type 1 reverse transcriptase (Human immunodeficiency virus 1, UniProt Q72547); experiment: Inhibition of HIV1 reverse transcriptase
[13] = target: Human immunodeficiency virus type 1 reverse transcriptase (Human immunodeficiency virus 1) (UniProt Q72547); experiment: Inhibition of HIV1 reverse transcriptase at 10 uM relative to control
[14] = target: Human immunodeficiency virus type 1 reverse transcriptase (Human immunodeficiency virus 1) (UniProt Q72547); experiment: Inhibition of HIV1 reverse transcriptase at 100 uM relative to control
Alpha amylase = target: T2, Alpha amylase (Homo sapiens, UniProt P0DUB6); experiment: Inhibition of alpha-amylase (unknown origin)
T2 sequence (P0DUB6 whole entry): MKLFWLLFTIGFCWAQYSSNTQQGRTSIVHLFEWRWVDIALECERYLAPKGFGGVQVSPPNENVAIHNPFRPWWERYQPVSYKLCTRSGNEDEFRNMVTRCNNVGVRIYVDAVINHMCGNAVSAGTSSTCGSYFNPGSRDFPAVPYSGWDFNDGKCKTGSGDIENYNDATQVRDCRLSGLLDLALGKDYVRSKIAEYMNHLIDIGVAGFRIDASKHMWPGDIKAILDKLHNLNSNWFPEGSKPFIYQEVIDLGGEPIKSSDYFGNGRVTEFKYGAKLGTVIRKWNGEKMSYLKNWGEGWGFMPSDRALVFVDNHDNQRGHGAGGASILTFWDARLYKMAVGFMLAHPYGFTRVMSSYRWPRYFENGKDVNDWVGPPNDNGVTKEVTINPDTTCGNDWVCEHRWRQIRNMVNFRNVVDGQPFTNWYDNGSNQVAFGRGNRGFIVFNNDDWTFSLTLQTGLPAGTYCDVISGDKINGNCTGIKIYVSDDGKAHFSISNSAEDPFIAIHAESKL

[15] = target: T1, Glutamate receptor ionotropic AMPA; experiment: Binding affinity to AMPA receptor (unknown origin); format: protein-complex assay
Glutamate receptor 2 = Glutamate receptor 2 (Homo sapiens, UniProt P42262); experiment: Binding affinity to GluA2 receptor (unknown origin)
Glutamate receptor 2, sequence (P42262 whole entry): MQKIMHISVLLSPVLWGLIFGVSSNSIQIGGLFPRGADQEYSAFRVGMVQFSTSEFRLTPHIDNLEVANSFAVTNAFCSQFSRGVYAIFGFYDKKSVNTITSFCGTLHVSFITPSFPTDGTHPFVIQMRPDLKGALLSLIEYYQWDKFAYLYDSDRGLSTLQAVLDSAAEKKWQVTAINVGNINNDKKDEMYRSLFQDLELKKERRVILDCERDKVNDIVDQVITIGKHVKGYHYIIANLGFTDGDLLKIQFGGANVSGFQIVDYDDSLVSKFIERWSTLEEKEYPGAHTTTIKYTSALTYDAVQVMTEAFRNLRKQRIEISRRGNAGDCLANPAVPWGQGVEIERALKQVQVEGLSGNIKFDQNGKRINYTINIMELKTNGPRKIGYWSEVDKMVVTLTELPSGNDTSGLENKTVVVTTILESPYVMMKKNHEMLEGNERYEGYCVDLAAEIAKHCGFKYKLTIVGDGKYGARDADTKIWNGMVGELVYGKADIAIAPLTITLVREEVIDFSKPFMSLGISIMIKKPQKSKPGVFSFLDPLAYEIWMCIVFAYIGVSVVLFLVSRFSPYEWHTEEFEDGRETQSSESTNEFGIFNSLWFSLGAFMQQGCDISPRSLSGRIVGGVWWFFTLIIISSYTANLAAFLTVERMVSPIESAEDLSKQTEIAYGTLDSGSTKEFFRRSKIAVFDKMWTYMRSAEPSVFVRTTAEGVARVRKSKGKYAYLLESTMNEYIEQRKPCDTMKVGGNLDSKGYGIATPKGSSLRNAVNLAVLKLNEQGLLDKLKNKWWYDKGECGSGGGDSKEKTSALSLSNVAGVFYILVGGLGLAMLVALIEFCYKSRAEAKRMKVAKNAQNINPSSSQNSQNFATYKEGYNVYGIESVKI

[16] = target: Glutamate receptor ionotropic, kainate 1 (Homo sapiens, UniProt P39086); experiment: Binding affinity to GluK1 receptor (unknown origin)
Glutamate receptor ionotropic, kainate 1, sequence (P39086 whole entry): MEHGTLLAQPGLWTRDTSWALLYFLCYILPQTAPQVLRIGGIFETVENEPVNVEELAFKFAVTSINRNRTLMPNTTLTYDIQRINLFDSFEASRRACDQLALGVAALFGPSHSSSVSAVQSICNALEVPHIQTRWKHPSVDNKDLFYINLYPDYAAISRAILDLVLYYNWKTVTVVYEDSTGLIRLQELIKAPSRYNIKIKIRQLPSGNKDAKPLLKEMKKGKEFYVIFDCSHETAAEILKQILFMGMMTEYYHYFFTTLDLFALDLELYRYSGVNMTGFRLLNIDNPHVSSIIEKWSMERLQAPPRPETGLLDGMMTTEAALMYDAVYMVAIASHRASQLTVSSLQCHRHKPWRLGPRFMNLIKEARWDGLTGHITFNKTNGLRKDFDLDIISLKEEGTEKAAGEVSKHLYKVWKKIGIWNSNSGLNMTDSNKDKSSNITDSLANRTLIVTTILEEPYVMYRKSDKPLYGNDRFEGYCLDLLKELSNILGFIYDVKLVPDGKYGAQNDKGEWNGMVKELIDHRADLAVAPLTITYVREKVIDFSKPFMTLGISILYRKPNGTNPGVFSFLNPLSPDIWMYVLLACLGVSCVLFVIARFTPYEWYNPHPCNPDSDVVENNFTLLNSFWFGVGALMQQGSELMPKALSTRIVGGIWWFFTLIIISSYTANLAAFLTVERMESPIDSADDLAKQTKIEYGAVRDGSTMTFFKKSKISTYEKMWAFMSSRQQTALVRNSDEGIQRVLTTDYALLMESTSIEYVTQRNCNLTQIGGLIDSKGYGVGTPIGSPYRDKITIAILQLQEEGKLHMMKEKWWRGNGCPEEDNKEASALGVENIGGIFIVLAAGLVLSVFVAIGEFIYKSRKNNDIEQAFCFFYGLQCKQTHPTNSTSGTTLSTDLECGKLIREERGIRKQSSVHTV

[17] = target: Glutamate receptor ionotropic, kainate 2 (Homo sapiens, UniProt Q13002); experiment: Binding affinity to GluK2 receptor (unknown origin)
Glutamate receptor ionotropic, kainate 2, sequence (Q13002 whole entry): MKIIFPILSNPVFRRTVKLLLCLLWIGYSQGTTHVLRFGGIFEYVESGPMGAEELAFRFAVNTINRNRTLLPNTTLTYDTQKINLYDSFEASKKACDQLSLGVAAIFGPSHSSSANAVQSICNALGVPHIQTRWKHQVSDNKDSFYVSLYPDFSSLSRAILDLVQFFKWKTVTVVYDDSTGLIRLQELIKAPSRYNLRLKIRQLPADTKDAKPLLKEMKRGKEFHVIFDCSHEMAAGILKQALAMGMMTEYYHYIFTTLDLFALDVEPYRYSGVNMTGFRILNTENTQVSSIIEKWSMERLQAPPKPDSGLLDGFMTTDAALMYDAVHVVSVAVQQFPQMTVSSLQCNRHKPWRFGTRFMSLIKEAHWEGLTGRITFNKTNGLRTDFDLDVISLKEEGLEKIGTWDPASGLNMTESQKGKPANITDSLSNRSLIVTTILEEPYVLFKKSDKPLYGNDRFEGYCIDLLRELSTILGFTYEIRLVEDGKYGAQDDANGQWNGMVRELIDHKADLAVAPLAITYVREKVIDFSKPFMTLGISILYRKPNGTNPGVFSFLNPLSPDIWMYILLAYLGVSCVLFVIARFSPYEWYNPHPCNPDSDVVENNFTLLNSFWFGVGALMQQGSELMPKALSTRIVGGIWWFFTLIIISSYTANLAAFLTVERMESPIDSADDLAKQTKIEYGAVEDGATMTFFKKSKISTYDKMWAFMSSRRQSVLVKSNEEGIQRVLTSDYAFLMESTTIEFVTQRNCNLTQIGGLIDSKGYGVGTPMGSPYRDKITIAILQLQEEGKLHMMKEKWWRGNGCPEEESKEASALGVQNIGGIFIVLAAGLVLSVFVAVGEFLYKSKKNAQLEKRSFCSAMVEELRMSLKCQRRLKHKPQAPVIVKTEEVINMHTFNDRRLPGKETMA

[18] = Binding affinity to KA receptor (unknown origin); set-up: species or system Homo sapiens
[19] = target: Glutamate [NMDA] receptor; experiment: Binding affinity to NMDA receptor (unknown origin); format: protein-complex assay, Homo sapiens
Candida albicans = experiment: Antifungal activity against Candida albicans; format: functional
Candida [20] = experiment: Antifungal activity against Candida species isolate 1; format: functional
Candida [21] = experiment: Antifungal activity against Candida species isolate 2; format: functional
Candida [22] = experiment: Antifungal activity against Candida species isolate 3; format: functional
Pichia kudriavzevii = experiment: Antifungal activity against Candida krusei; format: functional
Candida parapsilosis = experiment: Antifungal activity against Candida parapsilosis; format: functional; conditions: Lodderomyces parapsilosis
Candida tropicalis = experiment: Antifungal activity against Candida tropicalis; format: functional
Nakaseomyces glabratus = experiment: Antifungal activity against Candida glabrata; format: functional
[23] = Inhibition of palmitate-induced lipid accumulation in human HepG2 cells relative to control; format: functional
MCF7 = experiment: Antiproliferative activity against human MCF7 cells; format: functional, cell-based
HepG2 = experiment: Antiproliferative activity against human HepG2 cells; format: functional, cell-based

Structure (SMILES): Cc1cc2[nH]c(=O)c(=O)n(CC(=O)O)c2cc1C
- Ki [1]: 0.7 µM
- Ki [2]: 13.8 µM

Structure (SMILES): CCC(C)CN1CCc2c(Br)cc3nc(O)c(O)nc3c2C1 (stereo not drawn)
- IC50 [1]: > 100 µM
- IC50 [3]: 2.9 µM
- IC50 [4]: > 100 µM

Structure (SMILES): COc1cc(/C=C/c2nc3ccccc3n(CC(=O)O)c2=O)ccc1O
- IC50 [6]: 24.1 µM
- IC50 [7]: 0.419 µM
- inhibition [8]: 32.6%
- Activity [9]: 95.4%
- Activity [10]: 68.8%
- Activity [11]: 39.6%

Structure (SMILES): COC(=O)c1sc(Cl)cc1S(=O)(=O)N1c2cc(Cl)ccc2NC(=O)C1C (stereo not drawn)
- IC50 [12]: 0.07 µM

Structure (SMILES): CC(C)COC(=O)N1c2ccccc2NC(=O)[C@H]1C
- IC50 [12]: 64 µM
- inhibition [13]: 37%
- inhibition [14]: 64%

Structure (SMILES): Cc1ccc(C(=O)O)cc1-c1ccc2[nH]c(=O)c(=O)[nH]c2c1
- IC50 [15]: 30 µM
- Ki (Glutamate receptor 2): > 100 µM
- Ki [16]: 1.3 µM
- Ki [17]: > 100 µM
- IC50 [18]: > 100 µM
- Ki [19]: > 100 µM

Structure (SMILES): O=C(O)Cn1c(=O)c(/C=C/c2ccc(O)c(O)c2)nc2ccc(O)cc21
- IC50 [7]: 0.102 µM
- inhibition [8]: 42.1%
- Activity [9]: 96.2%
- Activity [10]: 82.1%
- Activity [11]: 70.5%

Structure (SMILES): O=C(O)Cn1c(=O)c(-c2ccc(O)cc2O)nc2ccc(F)cc21
- IC50 [7]: 0.032 µM
- inhibition [8]: 46.2%
- Activity [9]: 9.1%

Structure (SMILES): COC(=O)c1sccc1S(=O)(=O)N1c2cc(F)ccc2NC(=O)C1C (stereo not drawn)
- IC50 [12]: 0.2 µM

Structure (SMILES): Cc1cc2[nH]c(=O)c(=O)n(CP(=O)(O)O)c2cc1C
- Ki [1]: 1.21 µM
- Ki [2]: 5.28 µM

Structure (SMILES): CC(C)COC(=O)N1c2ccccc2NC(=O)[C@H]1CC(C)C
- IC50 [12]: 67 µM
- inhibition [13]: 22%
- inhibition [14]: 51%

Structure (SMILES): CC(C)c1nc2ccc(N3C(=O)CSC3c3ccc([N+](=O)[O-])cc3)cc2[nH]c1=O (stereo not drawn)
- IC50 [6]: 162 µM
- IC50 (Alpha amylase): 356.32 µM

Structure (SMILES): O=c1[nH]c2cc(C(F)(F)F)ccc2nc1C(F)(F)F
- MIC (Candida albicans): 8 µg/mL (≈ 28.4 µM)
- MIC (Candida [20]): 15.6 µg/mL (≈ 55.3 µM)
- MIC (Candida [21]): 125 µg/mL (≈ 443 µM)
- MIC (Candida [22]): 125 µg/mL (≈ 443 µM)
- MIC (Pichia kudriavzevii): 250 µg/mL (≈ 886 µM)
- MIC (Candida parapsilosis): 15.6 µg/mL (≈ 55.3 µM)
- MIC (Candida tropicalis): 125 µg/mL (≈ 443 µM)
- MIC (Nakaseomyces glabratus): 125 µg/mL (≈ 443 µM)

Structure (SMILES): Cc1ccc2ncc(C)nc2c1
- inhibition (INH) [23]: 20%

Structure (SMILES): CC(C)COC(=O)N1CC(=O)Nc2ccccc21
- inhibition [13]: 20%
- inhibition [14]: 46%

Structure (SMILES): CN1CCc2c(c([N+](=O)[O-])cc3[nH]c(=O)c(=O)[nH]c23)C1
- IC50 [1]: 0.29 µM
- IC50 [3]: 0.38 µM
- IC50 [4]: 4.9 µM

Structure (SMILES): Cc1cccc2c1NC(=O)CN2
- inhibition (INH) [23]: 50%

Structure (SMILES): O=C(O)CNS(=O)(=O)c1ccc2nc(O)c(O)nc2c1
- IC50 [15]: > 100 µM
- Ki [16]: > 100 µM
- Ki [17]: > 100 µM
- IC50 [18]: > 100 µM
- Ki [19]: 53 µM

Structure (SMILES): Oc1nc2cc(Cl)c(Cl)cc2n2ccnc12
- IC50 [1]: 7.38 µM
- IC50 [2]: 1.26 µM

Further lines, with some results ahead:

- inhibition (Homo sapiens): 84%
- IC50 [5]: > 50 µM
Structure (SMILES): Cc1nn(-c2ccccc2)c(N2CCOCC2)c1/C=N/Nc1nc2ccccc2nc1O

- inhibition (Homo sapiens): 34%
- IC50 [5]: > 50 µM
Structure (SMILES): Cc1nn(-c2ccccc2)c(Cl)c1/C=N/Nc1nc2ccccc2[nH]c1=O

- inhibition (Homo sapiens): 80%
- IC50 [5]: > 50 µM
Structure (SMILES): CC(=O)N1CCN(c2c(/C=N/Nc3nc4ccccc4nc3O)c(C)nn2-c2ccccc2)CC1

- IC50 (Alpha amylase): 395.84 µM
Structure (SMILES): O=c1[nH]c2ccccc2nc1N/N=C/c1cccs1

- inhibition (Homo sapiens): 74%
- IC50 [5]: > 50 µM
Structure (SMILES): Cc1nn(-c2ccccc2)c(N2CCCCC2)c1/C=N/Nc1nc2ccccc2nc1O

- inhibition (Homo sapiens): 83%
- IC50 [5]: > 50 µM
Structure (SMILES): Cc1nn(-c2ccccc2)c(N2CCN(C)CC2)c1/C=N/Nc1nc2ccccc2nc1O

- IC50 [6]: 20.9 µM
- IC50 [7]: 0.148 µM
- inhibition [8]: 30.5%
Structure (SMILES): O=c1c(/C=C/c2ccc(O)c(O)c2)nc2ccccc2n1-c1cnn(O)c1
- Activity [9]: 95.6%
- Activity [10]: 72.5%
- Activity [11]: 40.8%

- IC50 [12]: 23 µM
- inhibition [13]: 15%
- inhibition [14]: 73%
Structure (SMILES): CC(C)Cc1nc2ccccc2[nH]c1=O

- IC50 (Alpha amylase): 492.68 µM
Structure (SMILES): COc1cccc(/C=N/Nc2nc3ccccc3[nH]c2=O)c1

- IC50 (MCF7): 11.3 µM
- IC50 (HepG2): 23.4 µM
- inhibition (Homo sapiens): 78%
Structure (SMILES): Cc1nn(-c2ccccc2)c(SCCCO)c1/C=N/Nc1nc2ccccc2[nH]c1=O
